The source made the active and inactive calls. The rule behind the calls is not given here.
How the values were obtained:
Acinetobacter baumannii [1] = assay: Selectivity ratio of MBC for Acinetobacter baumannii ATCC19606 to MIC for Acinetobacter baumannii ATCC19606; format: functional
Acinetobacter baumannii [2] = assay: Antibacterial activity against Acinetobacter baumannii ATCC19606 incubated for 18 to 24 hrs; format: functional; settings: time 18-24 hrs
Staphylococcus aureus [3] = assay: Selectivity ratio of MBC for Staphylococcus aureus clinical isolate to MIC for Staphylococcus aureus clinical isolate; format: functional
Staphylococcus aureus [4] = assay: Antibacterial activity against Staphylococcus aureus clinical isolate incubated for 18 to 24 hrs; format: functional; settings: time 18-24 hrs
Staphylococcus aureus [5] = assay: Selectivity ratio of MBC for methicillin-resistant Staphylococcus aureus ATCC43300 to MIC for methicillin-resistant Staphylococcus aureus ATCC43300; format: functional
Bacillus subtilis [6] = assay: Selectivity ratio of MBC for penicillin-susceptible Bacillus subtilis ATCC9372 to MIC for penicillin-susceptible Bacillus subtilis ATCC9372; format: functional
Bacillus subtilis [7] = assay: Antibacterial activity against penicillin-susceptible Bacillus subtilis ATCC9372 incubated for 18 to 24 hrs; format: functional; settings: time 18-24 hrs
Staphylococcus aureus [8] = assay: Antibacterial activity against methicillin-resistant Staphylococcus aureus ATCC43300 incubated for 18 to 20 hrs; format: functional; settings: time 18-20 hrs
Staphylococcus aureus [9] = assay: Selectivity ratio of MBC for erythromycin-susceptible Staphylococcus aureus ATCC25923 to MIC for erythromycin-susceptible Staphylococcus aureus ATCC25923; format: functional
Staphylococcus aureus [10] = assay: Antibacterial activity against erythromycin-susceptible Staphylococcus aureus ATCC25923 incubated for 18 to 24 hrs; format: functional; settings: time 18-24 hrs
Streptococcus pyogenes [11] = assay: Antibacterial activity against erythromycin-resistant Streptococcus pyogenes 2 clinical isolate assessed as bacterial growth inhibition incubated for 20 hrs by CLSI based broth microdilution method; format: functional
[12] = test system: Staphylococcus epidermidis; assay: Antibacterial activity against penicillin-resistant Staphylococcus epidermidis clinical isolate assessed as bacterial growth inhibition incubated for 20 hrs by CLSI based broth microdilution method; format: functional
Staphylococcus aureus [13] = assay: Antibacterial activity against Staphylococcus aureus clinical isolate assessed as bacterial growth inhibition incubated for 20 hrs by CLSI based broth microdilution method; format: functional
Staphylococcus aureus [14] = assay: Antibacterial activity against penicillin-resistant Staphylococcus aureus ATCC31007 assessed as bacterial growth inhibition incubated for 20 hrs by CLSI based broth microdilution method; format: functional
Staphylococcus aureus [15] = assay: Antibacterial activity against methicillin-resistant Staphylococcus aureus ATCC43300 assessed as bacterial growth inhibition incubated for 20 hrs by CLSI based broth microdilution method; format: functional
Klebsiella pneumoniae = assay: Antibacterial activity against Klebsiella pneumoniae ATCC BAA-1902 assessed as bacterial growth inhibition incubated for 20 hrs by CLSI based broth microdilution method; format: functional
Acinetobacter baumannii [16] = assay: Antibacterial activity against Acinetobacter baumannii ATCC19606 assessed as bacterial growth inhibition incubated for 20 hrs by CLSI based broth microdilution method; format: functional
Escherichia coli [17] = assay: Antibacterial activity against wild-type Escherichia coli BW25113 assessed as bacterial growth inhibition incubated for 20 hrs by CLSI based broth microdilution method; format: functional
Escherichia coli [18] = assay: Antibacterial activity against penicillin-susceptible Escherichia coli ATCC25922 assessed as bacterial growth inhibition incubated for 20 hrs by CLSI based broth microdilution method; format: functional
Enterococcus faecium [19] = assay: Antibacterial activity against vancomycin-susceptible Enterococcus faecium ATCC19434 assessed as bacterial growth inhibition incubated for 20 hrs by CLSI based broth microdilution method; format: functional
Enterococcus faecalis [20] = assay: Antibacterial activity against vancomycin-susceptible Enterococcus faecalis ATCC29212 assessed as bacterial growth inhibition incubated for 20 hrs by CLSI based broth microdilution method; format: functional
Streptococcus pyogenes [21] = assay: Antibacterial activity against erythromycin-susceptible Streptococcus pyogenes 1 assessed as bacterial growth inhibition incubated for 20 hrs by CLSI based broth microdilution method; format: functional
Staphylococcus aureus [22] = assay: Antibacterial activity against erythromycin-susceptible Staphylococcus aureus ATCC25923 assessed as bacterial growth inhibition incubated for 20 hrs by CLSI based broth microdilution method; format: functional
Bacillus pumilus = assay: Antibacterial activity against penicillin-susceptible Bacillus pumilus CMCC63202 assessed as bacterial growth inhibition incubated for 20 hrs by CLSI based broth microdilution method; format: functional
Bacillus subtilis [23] = assay: Antibacterial activity against penicillin-susceptible Bacillus subtilis ATCC9372 assessed as bacterial growth inhibition incubated for 20 hrs by CLSI based broth microdilution method; format: functional
Enterococcus faecalis [24] = assay: Antibacterial activity against vancomycin-resistant Enterococcus faecalis ATCC51299 assessed as bacterial growth inhibition incubated for 20 hrs by CLSI based broth microdilution method; format: functional
Enterococcus faecium [25] = assay: Antibacterial activity against vancomycin-resistant Enterococcus faecium ATCC51559 assessed as bacterial growth inhibition incubated for 20 hrs by CLSI based broth microdilution method; format: functional
Staphylococcus aureus [26] = assay: Induction of resistance development in Staphylococcus aureus ATCC25923 assessed as fold increase in MIC at 0.5 times MIC measured after 32 days by multi-passage resistance assay relative to control; format: functional; settings: time 32.0 day
Staphylococcus aureus [27] = assay: Inhibition of biofilm formation of Staphylococcus aureus ATCC25923 incubated for 20 hrs by crystal violet staining based analysis; format: functional, organism-based
Staphylococcus aureus [28] = assay: Inhibition of biofilm formation of Staphylococcus aureus ATCC25923 at 0.5 ug/ml incubated for 20 hrs by crystal violet staining based analysis relative to control; format: functional
Bacillus subtilis [29] = assay: Induction of morphological change in Bacillus subtilis ATCC9372 assessed as increase in cell length at 0.5 times MIC by phase contrast microscopy; format: functional, organism-based
[30] = target: T1, Cell division protein FtsZ (Bacillus subtilis) (UniProt A5Z1V5); assay: Induction of FtsZ polymerization in Bacillus subtilis at 2.5 to 10 ug/ml preincubated with compound followed by GTP addition by absorbance based assay; settings: dose 2.5-10 µg/ml, time 40.0 min, TDE = time-dependent effect
T1 sequence (whole entry): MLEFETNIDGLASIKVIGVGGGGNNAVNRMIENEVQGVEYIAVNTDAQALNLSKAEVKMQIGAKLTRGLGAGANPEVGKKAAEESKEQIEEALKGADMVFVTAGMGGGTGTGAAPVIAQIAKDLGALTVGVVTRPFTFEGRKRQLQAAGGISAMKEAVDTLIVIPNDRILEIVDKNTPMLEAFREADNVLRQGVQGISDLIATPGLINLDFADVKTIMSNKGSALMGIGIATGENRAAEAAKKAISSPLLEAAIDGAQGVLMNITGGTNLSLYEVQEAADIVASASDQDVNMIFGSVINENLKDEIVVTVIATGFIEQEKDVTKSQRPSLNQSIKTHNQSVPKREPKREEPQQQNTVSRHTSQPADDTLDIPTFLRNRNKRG

[31] = target: T1, Cell division protein FtsZ (Bacillus subtilis); assay: Induction of FtsZ polymerization in Bacillus subtilis preincubated for 10 mins followed by GTP addition measured upto 30 mins by absorbance based assay; settings: dose 2.5-10 µg/ml, time 40.0 min
[32] = target: T1, Cell division protein FtsZ (Bacillus subtilis); assay: Induction of FtsZ polymerization in Bacillus subtilis assessed as bundling of FtsZ protofilaments at 10 ug/ml preincubated for 15 mins followed by GTP addition measured after 10 mins by TEM analysis; settings: dose 10.0 µg/ml, time 25.0 min
Staphylococcus aureus [33] = assay: Induction of membrane potential depolarization in Staphylococcus aureus ATCC25923 measured after 20 mins by diSC35 dye based spectroscopy; format: functional, organism-based
Escherichia coli [34] = assay: Induction of membrane potential depolarization in Escherichia coli ATCC25922 measured after 20 mins by diSC35 dye based spectroscopy; format: functional, organism-based
Staphylococcus aureus [35] = assay: Disruption of inner membrane in Staphylococcus aureus ATCC25923 measured after 12 mins by PI staining based analysis; format: functional, organism-based
Staphylococcus aureus [36] = assay: Disruption of inner membrane in Staphylococcus aureus ATCC25923 by PI staining based analysis; format: functional, organism-based; settings: time 12.0 min, TDE = time-dependent effect
Escherichia coli [37] = assay: Disruption of inner membrane in Escherichia coli ATCC25922 measured after 12 mins by PI staining based analysis; format: functional, organism-based
Escherichia coli [38] = assay: Disruption of inner membrane in Escherichia coli ATCC25922 by PI staining based analysis; format: functional, organism-based; settings: time 12.0 min, TDE = time-dependent effect
Escherichia coli [39] = assay: Disruption of outer membrane in Escherichia coli ATCC25922 measured after 10 mins by NPN dye based analysis; format: functional, organism-based; settings: dose 4-16 µg/ml
Staphylococcus aureus [40] = assay: Induction of morphological change in Staphylococcus aureus ATCC25923 assessed as loss of bacterial membrane integrity at 16 times MIC incubated for 2 hrs by TEM analysis; format: functional, organism-based
Staphylococcus aureus [41] = assay: Induction of morphological change in Staphylococcus aureus ATCC25923 assessed as leakage of cell contents at 16 times MIC incubated for 2 hrs by TEM analysis; format: functional, organism-based
[42] = Hemolytic activity in mouse erythrocytes at 8 ug/ml incubated for 1 hr by absorbance based assay; format: toxicity, cell-based, Erythrocyte; settings: at 8 µg/mL, read-out: Activity
[43] = Hemolytic activity in mouse erythrocytes at 16 ug/ml incubated for 1 hr by absorbance based assay; format: toxicity, cell-based, Erythrocyte; settings: at 16 µg/mL, read-out: Activity
Staphylococcus aureus [44] = assay: Antibacterial activity against Staphylococcus aureus ATCC25923 infected in Kunming mouse model assessed as bacterial growth reduction at 25 mg/kg, ip; format: functional, organism-based
Staphylococcus aureus [45] = assay: Effect on proton gradient of cytoplasmic membrane in Staphylococcus aureus ATCC25923 at 1 ug/ml measured after 20 mins by diSC35 dye based analysis; format: functional, organism-based; settings: Cytoplasm membrane, dose 1.0 µg/ml
Staphylococcus aureus [46] = assay: Disruption of inner membrane in Staphylococcus aureus ATCC25923 at 0.5 ug/ml measured after 12 mins by PI staining based analysis; format: functional, organism-based; settings: dose 0.5 µg/ml
Escherichia coli [47] = assay: Disruption of outer membrane in Escherichia coli ATCC25922 at 16 ug/ml measured after 10 mins by NPN dye based analysis; format: functional, organism-based; settings: dose 16.0 µg/ml

`Cc1ccccc1-c1c[n+](C)c(-c2ccc(C(C)(C)C)cc2)cc1/C=C/c1ccc(C(C)(C)C)cc1.[I-]` gave a Ratio (Acinetobacter baumannii [1]) of 4, an MBC (Acinetobacter baumannii [2]) of 2 µg/mL and a Ratio (Staphylococcus aureus [3]) of 2. It also gave an MBC (Staphylococcus aureus [4]) of 0.5 µg/mL, a Ratio (Staphylococcus aureus [5]) of 1 and a Ratio (Bacillus subtilis [6]) of 32. It also gave an MBC (Bacillus subtilis [7]) of 4 µg/mL, an MBC (Staphylococcus aureus [8]) of 0.25 µg/mL and a Ratio (Staphylococcus aureus [9]) of 4. The MBC (Staphylococcus aureus [10]) was 0.5 µg/mL, the MIC (Streptococcus pyogenes [11]) was 2 µg/mL and the MIC [12] was 0.5 µg/mL. It also gave an MIC (Staphylococcus aureus [13]) of 0.25 µg/mL, an MIC (Staphylococcus aureus [14]) of 1 µg/mL and an MIC (Staphylococcus aureus [15]) of 0.25 µg/mL. The MIC (Klebsiella pneumoniae) was 4 µg/mL, the MIC (Acinetobacter baumannii [16]) was 0.5 µg/mL and the MIC (Escherichia coli [17]) was 2 µg/mL. It also gave an MIC (Escherichia coli [18]) of 4 µg/mL, an MIC (Enterococcus faecium [19]) of 0.125 µg/mL and an MIC (Enterococcus faecalis [20]) of 1 µg/mL. For the same compound, the MIC (Streptococcus pyogenes [21]) was 2 µg/mL, the MIC (Staphylococcus aureus [22]) was 0.125 µg/mL and the MIC (Bacillus pumilus) was 0.5 µg/mL. It also gave an MIC (Bacillus subtilis [23]) of 0.125 µg/mL, an MIC (Enterococcus faecalis [24]) of 0.25 µg/mL and an MIC (Enterococcus faecium [25]) of 0.5 µg/mL. For the same compound, the fold change (FC) (Staphylococcus aureus [26]) was 2, the inhibition (Staphylococcus aureus [27]) was “Dose-Dependent Effect” and the inhibition at 0.5 µg/mL (Staphylococcus aureus [28]) was 28.8%. For the same compound, the Activity (Bacillus subtilis [29]) was “Active”, the Activity [30] was “Tde” and the Activity [31] was “Dose-Dependent Effect”. For the same compound, the Activity [32] was “Active”, the Activity (Staphylococcus aureus [33]) was “Dose-Dependent Effect” and the Activity (Escherichia coli [34]) was “Dose-Dependent Effect”. The Activity (Staphylococcus aureus [35]) was “Dose-Dependent Effect”, the Activity (Staphylococcus aureus [36]) was “Tde” and the Activity (Escherichia coli [37]) was “Dose-Dependent Effect”. For the same compound, the Activity (Escherichia coli [38]) was “Tde”, the Activity (Escherichia coli [39]) was “Dose-Dependent Effect” and the Activity (Staphylococcus aureus [40]) was “Active”. The Activity (Staphylococcus aureus [41]) was “Active”, the hemolysis at 1 h, 8 ug/ml [42] was 8.29% and the hemolysis at 1 h, 16 ug/ml [43] was 18.9%. For the same compound, the Activity (Staphylococcus aureus [44]) was “Active”.

In the case of `C[n+]1cc(-c2ccccc2)c(/C=C/c2ccccc2)cc1-c1ccc(C(C)(C)C)cc1`, the Activity (Staphylococcus aureus [45]) is reported as “inactive”, the Activity (Staphylococcus aureus [46]) is reported as “Active” and the Activity (Escherichia coli [47]) is reported as “Active”.
